From patent publication US20240041878A1, “APELIN RECEPTOR MODULATORS FOR TREATMENT OF A DISORDER OR DISEASE ASSOCIATED WITH BBB PERMEABILITY” (BioAge Labs, Inc., priority 2022, published 2024)

Key:
[1] = test system: healthy volunteers aged 65 or older; experiment: Phase 1b clinical trial, 10 days of bed rest; format: in vivo, human; conditions: infusions
Text: The study described herein characterizes the effects of BGE-105 on immune biomarkers in human in a Phase 1b clinical trial directed to treatment of muscular atrophy. […] The double-blind, placebo-controlled trial evaluated the safety and pharmacodynamics of BGE-105. Twenty-one volunteers underwent 10 days of bed rest while receiving infusions of BGE-105 or placebo. Biological samples from treated and placebo groups were collected on Day 6 and Day 11.

[2] = test system: NF-κB activation and IκBα phosphorylation in astrocytes; experiment: Western blot of NF-κB p65 and p-IκBα/t-IκBα in astrocytes; format: cell-based, mouse
Protocol: To stimulate astrocytes into a reactive state found in aging and neurodegenerative diseases per previous publications (Liddelow et al., 2017; Barbar et al., 2020), a combination of the cytokines TNF-α and IL-1α, and complement factor C1q, were added at 30 ng/mL, 3 ng/mL, and 400 ng/mL, respectively, into astrocyte culture media to make ‘reactive astrocyte cocktail’ (RAC) media. Astrocytes were cultured in RAC media for 24 hours, with or without various concentrations of BGE-105 (10 nM, 50 nM, 250 nM final concentration), (Pyr^1)-Apelin-13 (50 nM; Bachem, Cat. #4029110), BAY-11-7082 (50 μM; Abcam, Cat. #ab141228) or equal volume of vehicle (0.01% DMSO in PBS) (hereafter referred to as ‘RAC treatment’). […]
For analysis of astrocyte protein expression, cells were washed after RAC treatment with PBS and lysed with Neuronal Protein Extraction Reagent (Thermo Scientific, Cat. #87792), centrifuged to pellet debris, and supernatant was transferred to a new tube. Total protein concentration was measured by BCA protein assay (Thermo Scientific, Cat. #PI23227).

[3] = test system: Mouse primary astrocytes; experiment: Astrocyte glutamate uptake; format: cell-based; conditions: RAC+BGE-105 [10 nM, 50 nM, 250 nM] versus RAC
Protocol: To stimulate astrocytes into a reactive state found in aging and neurodegenerative diseases per previous publications (Liddelow et al., 2017; Barbar et al., 2020), a combination of the cytokines TNF-α and IL-1α, and complement factor C1q, were added at 30 ng/mL, 3 ng/mL, and 400 ng/mL, respectively, into astrocyte culture media to make 'reactive astrocyte cocktail' (RAC) media. […] Bachem, Cat. #4029110), BAY-11-7082 (50 μM; Abcam, Cat. #ab141228) or equal volume of vehicle (0.01% DMSO in PBS) (hereafter referred to as 'RAC treatment'). […] Fresh HBSS was added to each well and 100 μM glutamate (Sigma, Cat. #G1251) was added to each well. Empty wells not containing cells were filled with HBSS and 100 μM [NT] negative control. Cells were incubated at room temperature for 3 hours before HBSS was collected and glutamate concentration determined by colorimetric assay (Sigma, Cat. #MAK004). Relative change in glutamate uptake was calculated compared to negative control wells.

[4] = test system: rats; conditions: Ason et al., JCI Insight 2020; cited from earlier work
[5] = test system: Mouse primary astrocytes; experiment: Proteome Profiler Mouse Cytokine Array of astrocyte culture supernatant; format: cell-based; conditions: RAC+BGE-105 [50 nM and 250 nM] versus RAC
Protocol: To stimulate astrocytes into a reactive state found in aging and neurodegenerative diseases per previous publications (Liddelow et al., 2017; Barbar et al., 2020), a combination of the cytokines TNF-α and IL-1α, and complement factor C1q, were added at 30 ng/mL, 3 ng/mL, and 400 ng/mL, respectively, into astrocyte culture media to make ‘reactive astrocyte cocktail’ (RAC) media. […] Bachem, Cat. #4029110), BAY-11-7082 (50 μM; Abcam, Cat. #ab141228) or equal volume of vehicle (0.01% DMSO in PBS) (hereafter referred to as ‘RAC treatment’). […] To assess a panel of cytokines and chemokines, cell culture supernatant was diluted 1:10 and assayed using the Proteome Profiler Mouse Cytokine Array Kit, Panel A (R&D Systems, Cat. #ARY006) per manufacturer's protocol. Dot blots were analyzed in Fiji (Schindelin et al. 2012. Fiji: an open-source platform for biological-image analysis. Nat Methods 9, 676-682) and transcription factor enrichment was performed with Enrichr (Chen, et al. 2013. Enrichr: interactive and collaborative HTML5 gene list enrichment analysis tool. BMC Bioinformatics 14, 128).

[6] = test system: Mouse astrocyte cells; experiment: CXCL1 and IL-6 ELISA of astrocyte culture media after RAC treatment; format: cell-based; conditions: RAC+BGE-105 250 nM

## COc1cccc(OC)c1-n1c(NS(=O)(=O)[C@@H](C)[C@H](C)c2ncc(C)cn2)nnc1-c1cncc(C)c1 [BGE-105, (2S,3R)—N-(4-(2,6-dimethoxyphenyl)-5-(5-methyl-3-pyridinyl)-4H-1,2,4-triazol-3-yl)-3-(5-methyl-2-pyrimidinyl)-2-butanesulfonamide]
[1]; 10 days of bed rest
  tolerability: well tolerated
[1]; 10 days of strict bed rest
  muscle atrophy relative to placebo: statistically significant prevention
[2]; RAC+BGE105 (50 nM) versus RAC
  ratio of p-IκBα/tIκBα expression normalized to β-actin: significantly reduced
[2]; RAC+BGE-105 (50 nM) versus RAC
  NF-κB p65 expression normalized to β-actin: significantly reduced
[3]
  percentage of glutamate uptake in RAC astrocytes: significantly and statistically increased
[4]
  cardiovascular response: induces a cardiovascular response
[5]
  cytokine and chemokine release (array panel): significantly reduced
[6]
  CXCL1 concentration/release (FIG. 12): 20000 to 40000 pg/mL
  IL-6 concentration/release (FIG. 12): about 10000 pg/ml
